Laboratory results as given in patent publication US4769377A, “Adenosine receptor antagonists” (priority 1986, dated 1988).

What follows are compounds tested against T1, adenosine A1 receptors (Bos taurus, UniProt P28190) (assay: inhibition of [^3 H]CHA binding to A1 adenosine receptors in bovine brain membranes). Details: not given.
T1 sequence (P28190 1-326): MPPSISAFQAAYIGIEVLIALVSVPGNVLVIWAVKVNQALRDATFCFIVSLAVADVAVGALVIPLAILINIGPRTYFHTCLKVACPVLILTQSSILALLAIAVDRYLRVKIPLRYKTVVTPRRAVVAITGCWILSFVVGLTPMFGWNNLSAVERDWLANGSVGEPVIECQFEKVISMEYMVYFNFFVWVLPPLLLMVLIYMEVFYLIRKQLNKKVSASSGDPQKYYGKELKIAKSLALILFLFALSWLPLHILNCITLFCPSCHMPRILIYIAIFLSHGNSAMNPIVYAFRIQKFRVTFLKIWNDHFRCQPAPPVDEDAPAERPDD
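Note: Filter-bound radioactivity read by liquid scintillation counting, with dose-inhibition curves built from 4–8 test concentrations, each run in triplicate.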

IC50 [nM]	Ki [nM]	Compound
3000	1400	CCn1c(=O)c2nc[nH]c2n(CC)c1=O [1,3-diethylX]
6	–	Cc1ccccc1-c1nc2c([nH]1)c(=O)n(C)c(=O)n2C [8-(o-methylphenyl)T]
500	–	Cn1c(=O)c2[nH]c(-c3ccc(S(=O)(=O)O)cc3)nc2n(C)c1=O [8-(p-sulfo-phenyl)T]
50	–	Cn1c(=O)c2[nH]c(-c3cccnc3)nc2n(C)c1=O [8-(3-pyridyl)T]
–	4.8	Cn1c(=O)c2[nH]c(-c3ccccc3O)nc2n(C)c1=O [8-(o-hydroxyphenyl)T]
20	–	COc1ccc(-c2nc3c([nH]2)c(=O)n(C)c(=O)n3C)cc1OC [8-(3,4-dimethoxyphenyl)T]
–	540	Cn1c(=O)c2[nH]c(-c3cccc(C(=O)O)c3)nc2n(C)c1=O [8-(m-carboxyphenyl)T]
8000	–	CCCn1c(=O)n(CC)c(=O)c2scnc21 [1-ethyl-3-propyl-7-thiaxanthine]
30	–	Cn1c(=O)c2[nH]c(CC3CCCC3)nc2n(C)c1=O [8-cyclopentylmethylT]
0.3	0.12	CCCn1c(=O)c2[nH]c(-c3ccccc3)nc2n(CCC)c1=O [B255, 1,3-Dipropyl-8-Phenylxanthine]
3	–	Cn1c(=O)c2nc(C3CCCCC3)[nH]c2n(C)c1=O [8-cyclohexylT]
18	–	Cn1c(=O)c2[nH]c(-c3c[nH]c4ccccc34)nc2n(C)c1=O [8-(3-indolyl)T]
4000	–	C=CCn1c(=O)c2nc[nH]c2n(CC=C)c1=O [1,3-diallylX]
5	–	Cn1c(=O)c2[nH]c(-c3ccc4ccccc4c3)nc2n(C)c1=O [8-(2-naphthyl)T]
–	3.1	Cn1c(=O)c2[nH]c(-c3cccc(O)c3)nc2n(C)c1=O [8-(m-hydroxyphenyl)T]
2	–	Cn1c(=O)c2[nH]c(C3CCCC3)nc2n(C)c1=O [8-cyclopentylT]
5	–	Cn1c(=O)c2nc(-c3cccs3)[nH]c2n(C)c1=O [8-(2-thienyl)T]
–	18	Cn1c(=O)c2[nH]c(-c3ccc(C(=O)O)cc3)nc2n(C)c1=O [8-(p-carboxyphenyl)T]

Continued, compound first:

Compound	IC50 [nM]	Ki [nM]
Cn1c(=O)c2[nH]c(-c3ccco3)nc2n(C)c1=O [8-(2-furyl)T]	18	–
Cn1c(=O)c2[nH]c(-c3ccc(Br)cc3)nc2n(C)c1=O [8-(p-bromophenyl)T]	0.8	0.34
Cn1c(=O)c2[nH]c(-c3ccccc3F)nc2n(C)c1=O [8-(o-fluorophenyl)T]	12	–
O=c1nc2[nH]c3ccccc3nc-2c(=O)[nH]1 [alloxazine]	1500	–
Cn1c(=O)c2c(ncn2C)n(C)c1=O [caffeine]	20000	11000
Cn1c(=O)c2[nH]c(-c3ccc([N+](=O)[O-])cc3)nc2n(C)c1=O [8-(p-nitrophenyl)T]	–	4
Cn1c(=O)[nH]c2nc[nH]c2c1=O [1-methylX]	6000	2600
O=c1[nH]c(=O)c2[nH]cnc2[nH]1 [xanthine]	200000	99000
Cn1c(=O)c2[nH]c(-c3ccc(Br)o3)nc2n(C)c1=O [8-(5-bromo-2-furyl)T]	50	–
Cn1c(=O)c2[nH]c(-c3cccc(N)c3)nc2n(C)c1=O [8-(m-aminophenyl)T]	–	5.8
Cn1c(=O)c2nc(-c3ccccc3N)[nH]c2n(C)c1=O [B87, 8-(o-aminophenyl)theophylline]	5	2.3
Cn1c(=O)c2c(ncn2CC(O)CO)n(C)c1=O (centres unmarked) [7-(2,3-dihydroxypropyl)T]	800000	–
Nc1ncnc2nc[nH]c12 [adenine]	800000	–
Cn1c(=O)c2[nH]c(-c3ccccc3C(=O)O)nc2n(C)c1=O [8-(o-carboxyphenyl)T]	–	21000
Cn1cnc2c(N)ncnc21 [9-methyladenine]	35000	–
Cn1c(=O)c2[nH]c(-c3cccc([N+](=O)[O-])c3)nc2n(C)c1=O [8-(m-nitrophenyl)T]	–	22
Cn1c(=O)c2[nH]c(-c3ccccc3[N+](=O)[O-])nc2n(C)c1=O [8-(o-nitrophenyl)T]	–	49
CCCc1nc2c([nH]1)c(=O)n(C)c(=O)n2C [8-(n-propyl)T]	100	–
Cn1c(=O)c2c(ncn2CCCl)n(C)c1=O [7-(2-chloroethyl)T]	5000	–
Cn1c(=O)c2c(ncn2CCO)n(C)c1=O [7-(2-hydroxyethyl)T]	100000	–
Cn1c(=O)c2[nH]c(-c3cccc(Br)c3)nc2n(C)c1=O [8-(m-bromophenyl)T]	–	4
Cn1c(=O)c2nc3ccccc3nc2n(C)c1=O [1,3-dimethylalloxazine]	25000	–
Cn1c(=O)[nH]c2ncn(C)c2c1=O [1,7-dimethylX]	30000	7400
Cn1c(=O)c2[nH]c(-c3ccc(N)cc3)nc2n(C)c1=O [B211, 8-(p-aminophenyl)theophylline]	1.7	0.69
Cn1cnc2c1c(=O)[nH]c(=O)n2C [3,7-Dimethyl (theobromine), theobromine]	–	68
Cc1ccc(-c2nc3c([nH]2)c(=O)n(C)c(=O)n3C)s1 [8-(5-methyl-2-thienyl)T]	5	–
Cn1c(=O)c2[nH]c(-c3ccc(O)cc3)nc2n(C)c1=O [8-(p-hydroxyphenyl)T]	–	2

Same assay, conditions: Table I; vs [^3 H]-cyclohexyladenosine, bovine brain

IC50 [nM]	Compound
0.8	Cn1c(=O)c2[nH]c(-c3ccc(Cl)cc3)nc2n(C)c1=O [B70, 8-(p-chlorophenyl)theophylline]

Same assay, conditions: Table II; vs [^3 H-CHA] in bovine brain

IC50 [nM]	Compound
0.8	Cc1ccc(-c2nc3c([nH]2)c(=O)n(C)c(=O)n3C)cc1 [8-(p-methylphenyl)T]
80	Cn1c(=O)c2[nH]c(-c3cccc4ccccc34)nc2n(C)c1=O [8-(1-naphthyl)T]
200	COc1ccc(-c2nc3c([nH]2)c(=O)n(C)c(=O)n3C)c(OC)c1 [8-(2,4-dimethoxyphenyl)T]
1.3	Cn1c(=O)c2[nH]c(-c3ccc(I)cc3)nc2n(C)c1=O [8-(p-iodophenyl)T]
2	CSc1ccc(-c2nc3c([nH]2)c(=O)n(C)c(=O)n3C)cc1 [8-(p-methylthiophenyl)T]
10	Cn1c(=O)c2[nH]c(-c3ccccc3O)nc2n(C)c1=O [8-(o-hydroxyphenyl)T]
4	Cn1c(=O)c2[nH]c(-c3cccc(F)c3)nc2n(C)c1=O [8-(m-fluorophenyl)T]
7	C=CCn1c(=O)c2[nH]c(-c3ccc(C)cc3N)nc2n(C)c1=O [1-allyl-3-methyl-8-(2-amino-4-methylphenyl)X]
1000	Cn1c(=O)c2[nH]c(-c3cccc(C(=O)O)c3)nc2n(C)c1=O [8-(m-carboxyphenyl)T]
500	COc1cc(OC)cc(-c2nc3c([nH]2)c(=O)n(C)c(=O)n3C)c1 [8-(3,5-dimethoxyphenyl)T]
30	Cc1cc(O)cc(C)c1-c1nc2c([nH]1)c(=O)n(C)c(=O)n2C [8-(2,6-dimethyl-4-hydroxyphenyl)T]
2.5	CC(C)c1ccc(-c2nc3c([nH]2)c(=O)n(C)c(=O)n3C)cc1 [8-(p-isopropylphenyl)T]
13	Cc1cccc(-c2nc3c([nH]2)c(=O)n(C)c(=O)n3C)c1 [8-(m-methylphenyl)T]
20	Cn1c(=O)c2[nH]c(-[c-]3cccc3)nc2n(C)c1=O.[Fe+2].c1cc[cH-]c1 [8-ferrocenylT]
35	Cn1c(=O)c2[nH]c(-c3ccncc3)nc2n(C)c1=O [8-(4-pyridyl)T]
20	COc1cccc(-c2nc3c([nH]2)c(=O)n(C)c(=O)n3C)c1 [8-(m-methoxyphenyl)T]
6	Cn1c(=O)c2[nH]c(-c3cccc(O)c3)nc2n(C)c1=O [8-(m-hydroxyphenyl)T]
1.8	CN(C)c1ccc(-c2nc3c([nH]2)c(=O)n(C)c(=O)n3C)cc1 [8-(p-dimethylaminophenyl)T]
0.8	CCc1ccc(-c2nc3c([nH]2)c(=O)n(C)c(=O)n3C)cc1 [8-(p-ethylphenyl)T]
50	Cn1c(=O)c2[nH]c(-c3ccc(C(=O)O)cc3)nc2n(C)c1=O [8-(p-carboxyphenyl)T]

The next lines start with the compound.

Compound	IC50 [nM]
CN(C)c1cccc(-c2nc3c([nH]2)c(=O)n(C)c(=O)n3C)c1 [8-(m-dimethylaminophenyl)T]	80
CCOc1ccc(-c2nc3c([nH]2)c(=O)n(C)c(=O)n3C)cc1 [8-(p-ethoxyphenyl)T]	2
COc1ccc(-c2nc3c([nH]2)c(=O)n(C)c(=O)n3C)cc1 [8-(p-methoxyphenyl)T]	1.5
C=CCn1c(=O)c2[nH]c(-c3ccc(Cl)cc3N)nc2n(CC=C)c1=O [1,3-diallyl-8-(2-amino-4-chlorophenyl)X, 1,3-diallyl-8-(2-amino-4-chlorophenyl)xanthine]	0.8
Cn1c(=O)c2[nH]c(-c3ccc([N+](=O)[O-])cc3)nc2n(C)c1=O [8-(p-nitrophenyl)T]	8
Cn1c(=O)[nH]c2nc(-c3ccccc3)[nH]c2c1=O [1-methyl-8-phenylX]	2.5
CCn1c(=O)c2[nH]c(-c3ccc(Br)cc3)nc2n(CC)c1=O [1,3-diethyl-8-(p-bromophenyl)X]	1
Cn1c(=O)c2[nH]c(-c3cccc(N)c3)nc2n(C)c1=O [8-(m-aminophenyl)T]	10
Cn1c(=O)c2[nH]c(-c3ccccc3C(=O)O)nc2n(C)c1=O [8-(o-carboxyphenyl)T]	2500
Cn1c(=O)c2[nH]c(-c3cccc([N+](=O)[O-])c3)nc2n(C)c1=O [8-(m-nitrophenyl)T]	50
Cn1c(=O)c2[nH]c(-c3ccccc3[N+](=O)[O-])nc2n(C)c1=O [8-(o-nitrophenyl)T]	80
Cn1c(=O)c2[nH]c(-c3ccc(F)cc3)nc2n(C)c1=O [8-(p-fluorophenyl)T]	3.5
Cn1c(=O)c2[nH]c(-c3cccc(Br)c3)nc2n(C)c1=O [8-(m-bromophenyl)T]	10
C=CCn1c(=O)c2[nH]c(-c3ccccc3)nc2n(C)c1=O [1-allyl-3-methyl-8-phenylX]	4
Cn1c(=O)c2[nH]c(-c3ccoc3)nc2n(C)c1=O [8-(3-furyl)T]	4
Cn1c(=O)c2[nH]c([N+](=O)[O-])nc2n(C)c1=O [8-nitroT]	3500
Cn1c(=O)c2[nH]c(-c3ccc(Cl)c(Cl)c3)nc2n(C)c1=O [8-(3,4-dichlorophenyl)T]	5
Cn1c(=O)c2[nH]c(-c3ccc(-c4ccccc4)cc3)nc2n(C)c1=O [8-(p-phenylphenyl)T]	3.5
CCCCOc1ccc(-c2nc3c([nH]2)c(=O)n(C)c(=O)n3C)cc1 [8-(p-butoxyphenyl)T]	4
Cn1c(=O)c2[nH]c(-c3ccc(O)cc3)nc2n(C)c1=O [8-(p-hydroxyphenyl)T]	2

Same assay, conditions: bovine brain

times more potent than theophylline	Compound	adenosine receptor blocking activity (in words)
–	C=CCn1c(=O)c2[nH]c(-c3ccc(Cl)cc3N)nc2n(CC=C)c1=O [1,3-diallyl-8-(2-amino-4-chlorophenyl)X, 1,3-diallyl-8-(2-amino-4-chlorophenyl)xanthine]	useful activity as an adenosine receptor antagonist
about 10,000 times	CCCn1c(=O)c2[nH]c(-c3ccccc3)nc2n(CCC)c1=O [B255, 1,3-Dipropyl-8-Phenylxanthine]	significantly lower
